Reference: US5929112A, “Derivatives of N,N'-di (carboxyalkyl) alkylene di-or triamine” (L'Oreal, priority 1995, dated 1999)
Counter-ions that a name gives are not always drawn.

Assay: Comparative solubility tests in 50 mM acetate buffer pH 5.8
Format: physicochemical
Details: aqueous buffer
Text: COMPARATIVE SOLUBILITY TESTS

solubility [mg/mL]	SMILES
> 100	COc1cc(CN(CC(=O)O)CC(C)N(CC(=O)O)Cc2cc(OC)c(OC)c(OC)c2)cc(OC)c1OC (centres unmarked) [Example 1, N,N'-bis-(3,4,5-trimethoxybenzyl)-2-methyl ethylenediamine diacetic acid]
< 5	COc1cc(CN(CCN(CC(=O)O)Cc2cc(OC)c(OC)c(OC)c2)CC(=O)O)cc(OC)c1OC [N,N'-bis-(3,4,5-trimethoxybenzyl) ethylenediamine-N,N'-diacetic acid, 2 HCl]
